The values that follow are results of earlier work, collected in patent US20090197941A1, “Pharmaceutical Compositons for the Treatment of Chronic Obstructive Pulmonary Disease” (priority 2005, published 2009).

SMILES strings stand for the structures.

The subject of data set [1] is U87 human glioma cells. The settings on record: increasing concentrations of CBD, Boyden chamber, read-out: IC50 of tumour cell migration.
Data set [2] concerns the target CB2 receptors (Homo sapiens, UniProt P34972). Conditions: known in the art.
Data set [3] has as its target CB1 receptors (Homo sapiens, UniProt P21554). The settings on record: known in the art.

Chain of CB1 receptors (P21554 whole entry): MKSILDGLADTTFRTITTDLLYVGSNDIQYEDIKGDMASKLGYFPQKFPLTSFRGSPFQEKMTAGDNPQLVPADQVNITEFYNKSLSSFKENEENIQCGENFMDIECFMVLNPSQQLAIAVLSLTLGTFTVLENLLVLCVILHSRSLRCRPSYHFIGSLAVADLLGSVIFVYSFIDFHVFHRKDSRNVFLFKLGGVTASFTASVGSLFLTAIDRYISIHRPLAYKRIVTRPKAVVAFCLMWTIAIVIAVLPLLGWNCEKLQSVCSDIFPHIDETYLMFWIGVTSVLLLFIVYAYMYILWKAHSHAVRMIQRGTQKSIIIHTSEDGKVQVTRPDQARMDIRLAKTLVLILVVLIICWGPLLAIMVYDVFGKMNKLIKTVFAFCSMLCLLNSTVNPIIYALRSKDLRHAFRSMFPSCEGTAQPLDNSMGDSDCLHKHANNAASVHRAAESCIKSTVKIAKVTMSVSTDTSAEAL
Chain of CB2 receptors (P34972 whole entry): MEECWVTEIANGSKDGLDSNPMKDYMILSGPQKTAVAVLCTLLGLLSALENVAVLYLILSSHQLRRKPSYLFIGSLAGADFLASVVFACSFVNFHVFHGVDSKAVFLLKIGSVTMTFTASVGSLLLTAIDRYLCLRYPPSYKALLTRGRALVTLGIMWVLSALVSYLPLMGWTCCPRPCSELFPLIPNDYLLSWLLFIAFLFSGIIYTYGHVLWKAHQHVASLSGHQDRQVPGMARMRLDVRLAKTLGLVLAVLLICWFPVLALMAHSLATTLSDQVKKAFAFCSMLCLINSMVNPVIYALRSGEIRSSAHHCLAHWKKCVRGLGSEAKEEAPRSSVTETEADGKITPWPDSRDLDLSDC

With `C=C(C)[C@@H]1CCC(C)=C[C@H]1c1c(O)cc(CCCCC)cc1O` [CBD, cannabidiol], the IC50 in data set [1] was 5.05 ± 1.1 µM. In addition, the “action at CB2 receptors” value in data set [2] is “not to act”. Besides, in data set [3], the “action at CB1 receptors” value is “only very weakly”.
